# In ChEMBL document CHEMBL1158692, “Lajollamycin, a nitro-tetraene spiro-beta-lactone-gamma-lactam antibiotic from the marine actinomycete Streptomyces nodosus” (J Nat Prod, 2005):
# Experiments:
# [1] = tested on: Escherichia coli; test: Antimicrobial activity against Escherichia coli after 14 to 16 hrs; type: functional
# [2] = tested on: Staphylococcus aureus; test: Antimicrobial activity against methicillin-sensitive Staphylococcus aureus after 14 to 16 hrs; type: functional
# [3] = tested on: Staphylococcus aureus; test: Antimicrobial activity against methicillin-resistant Staphylococcus aureus after 14 to 16 hrs; type: functional
# [4] = tested on: Streptococcus pneumoniae; test: Antimicrobial activity against penicillin-resistant Streptococcus pneumoniae after 14 to 16 hrs; type: functional
# [5] = tested on: Enterococcus faecium; test: Antimicrobial activity against vancomycin-resistant Enterococcus faecium after 14 to 16 hrs; type: functional
# [6] = tested on: Streptococcus pneumoniae; test: Antimicrobial activity against penicillin-sensitive Streptococcus pneumoniae after 14 to 16 hrs; type: functional
# [7] = tested on: B16-F10; test: Cytotoxicity against mouse B16F10 cells after 3 to 6 hrs; type: functional, cell-based
# [8] = tested on: Enterococcus faecalis; test: Antimicrobial activity against vancomycin-sensitive Enterococcus faecalis after 14 to 16 hrs; type: functional
smiles,measurement,setting,value
COC(CC(C)C(O)/C=C/C=C/CNC(=O)C(C)(C)C(O)\C(C)=C/C=C\C=C\C(C)=C(/C)[N+](=O)[O-])C1(O)C(C)C(=O)N(C)C12C(=O)OC2C (stereo not drawn) [LAJOLLAMYCIN],MIC,[1],12 µg/mL
same,MIC,[2],4 µg/mL
same,MIC,[3],5 µg/mL
same,MIC,[4],1.5 µg/mL
same,MIC,[5],20 µg/mL
same,MIC,[6],2 µg/mL
same,EC50,[7],9.6 µM
same,MIC,[8],14 µg/mL
